Measured values: article PMC5775428, “Towards an experimental classification system for membrane active peptides” (Scientific Reports, 2018)
Read-outs that look alike come from different tables or passages of the source.

What was measured:
[1] = system: Bacillus cereus
How it was run: (§1)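 Peptides were serially diluted from 256 down to 0.5 μM and incubated with the bacterial strains according to CLSI M7-A10. Wells were then inspected by optical microscopy, and MIC assigned where no cells appeared.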

[2] = system: Bacillus subtilis; settings: Bacillus subtilis; for Minimum inhibitory concentration, Average: average of triplicates
How it was run: as §1

[3] = system: Candida albicans; settings: Candida albicans; for Minimum inhibitory concentration, Average: average of triplicates
How it was run: (§2)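 MICs determined per CLSI M7-A10 (bacteria) and M27-A3 (yeasts) protocols, peptides tested at 0.5 to 256 μM. MIC taken as the lowest concentration with no cells seen by optical microscopy; three biological repeats with 2 technical replicates each.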

[4] = system: Cryptococcus neoformans; settings: Cryptococcus neoformans; for Minimum inhibitory concentration, Average: average of triplicates
How it was run: as §2

[5] = system: Erwinia carotovora
How it was run: as §1

[6] = system: Escherichia coli
How it was run: as §1

[7] = system: Pseudomonas aeruginosa
How it was run: as §1

[8] = system: Pseudomonas syringae pv. tabaci
How it was run: as §1

[9] = system: Staphylococcus aureus
How it was run: as §1

[10] = system: Xanthomonas campestris; settings: for Minimum inhibitory concentration, Average: average of triplicates
How it was run: as §1

[11] = Bacillus cereus, CLSI M7-A10, triplicate 1
[12] = Bacillus cereus, average of triplicates
[13] = CLSI M27-A3, 0.5 to 256 μM tested, triplicate 1, also published in ref 7
[14] = Erwinia carotovora, CLSI M7-A10, triplicate 1
[15] = Erwinia carotovora, average of triplicates
[16] = Erwinia carotovora, triplicate 2
[17] = Erwinia carotovora, triplicate 3
[18] = Escherichia coli, CLSI M7-A10, triplicate 1
[19] = Escherichia coli, average of triplicates
[20] = Pseudomonas aeruginosa, CLSI M7-A10, triplicate 1
[21] = Pseudomonas aeruginosa, average of triplicates
[22] = Pseudomonas aeruginosa, triplicate 2
[23] = Pseudomonas aeruginosa, triplicate 3
[24] = Pseudomonas syringae pv. tabaci, CLSI M7-A10, triplicate 1
[25] = Pseudomonas syringae pv. tabaci, average of triplicates
[26] = Pseudomonas syringae pv. tabaci, triplicate 2
[27] = Pseudomonas syringae pv. tabaci, triplicate 3
[28] = Staphylococcus aureus, CLSI M7-A10, triplicate 1
[29] = Staphylococcus aureus, average of triplicates
[30] = Staphylococcus aureus, triplicate 2
[31] = Staphylococcus aureus, triplicate 3

Sequence | Minimum inhibitory concentration [1, 11] [µM] | Minimum inhibitory concentration, Average [1, 12] [µM] | Minimum inhibitory concentration ([1]; Bacillus cereus, triplicate 2) [µM] | Minimum inhibitory concentration ([2]; CLSI M7-A10, triplicate 1) [µM] | Minimum inhibitory concentration, Average [2] [µM] | Minimum inhibitory concentration ([2]; triplicate 2) [µM] | Minimum inhibitory concentration ([2]; triplicate 3) [µM] | Minimum inhibitory concentration [3, 13] [µM] | Minimum inhibitory concentration, Average [3] [µM] | Minimum inhibitory concentration ([3]; triplicate 2) [µM] | Minimum inhibitory concentration ([3]; triplicate 3) [µM] | Minimum inhibitory concentration ([4]; CLSI M27-A3, triplicate 1) [µM] | Minimum inhibitory concentration, Average [4] [µM] | Minimum inhibitory concentration ([4]; triplicate 2) [µM] | Minimum inhibitory concentration ([4]; triplicate 3) [µM] | Minimum inhibitory concentration [5, 14] [µM] | Minimum inhibitory concentration ([10]; CLSI M7-A10, triplicate 1) [µM] | Minimum inhibitory concentration, Average [10] [µM] | Minimum inhibitory concentration ([10]; triplicate 2) [µM] | Minimum inhibitory concentration ([10]; triplicate 3) [µM] | also measured
GSLHGFMYKYLKTLVLRLY [Zm01] | 64 | 44.7 | 64 | 8 | 8.0 | 8 | 8 | 4 | 6.7 | 8 | 8 | 4 | 4.0 | 4 | 4 | 16 | 16 | 16.0 | 16 | 16 | Minimum inhibitory concentration, Average [5, 15]: 16.0 µM; Minimum inhibitory concentration [5, 16]: 16 µM; Minimum inhibitory concentration [5, 17]: 16 µM; Minimum inhibitory concentration [6, 18]: 8 µM; Minimum inhibitory concentration, Average [6, 19]: 13.3 µM; Minimum inhibitory concentration ([6]; Escherichia coli, triplicate 2): 16 µM; Minimum inhibitory concentration ([6]; Escherichia coli, triplicate 3): 16 µM; Minimum inhibitory concentration [7, 20]: 16 µM; Minimum inhibitory concentration, Average [7, 21]: 16.0 µM; Minimum inhibitory concentration [7, 22]: 16 µM; Minimum inhibitory concentration [7, 23]: 16 µM; Minimum inhibitory concentration [8, 24]: 32 µM; Minimum inhibitory concentration, Average [8, 25]: 32.0 µM; Minimum inhibitory concentration [8, 26]: 32 µM; Minimum inhibitory concentration [8, 27]: 32 µM; Minimum inhibitory concentration [9, 28]: 16 µM; Minimum inhibitory concentration, Average [9, 29]: 16.0 µM; Minimum inhibitory concentration [9, 30]: 16 µM; Minimum inhibitory concentration [9, 31]: 16 µM
GSLHGFMYRYLKNMVLNLF [Cs01] | 64 | 64.0 | 64 | 8 | 8.0 | 8 | 8 | 2 | 2.7 | 2 | 4 | 8 | 8.0 | 8 | 8 | 128 | 64 | 64.0 | 64 | 64 | Minimum inhibitory concentration ([1]; Bacillus cereus, triplicate 3): 64 µM; Minimum inhibitory concentration, Average [5, 15]: 128.0 µM; Minimum inhibitory concentration [5, 16]: 128 µM; Minimum inhibitory concentration [5, 17]: 128 µM; Minimum inhibitory concentration [6, 18]: 32 µM; Minimum inhibitory concentration, Average [6, 19]: 32.0 µM; Minimum inhibitory concentration ([6]; Escherichia coli, triplicate 2): 32 µM; Minimum inhibitory concentration ([6]; Escherichia coli, triplicate 3): 32 µM; Minimum inhibitory concentration [7, 20]: 32 µM; Minimum inhibitory concentration, Average [7, 21]: 32.0 µM; Minimum inhibitory concentration [7, 22]: 32 µM; Minimum inhibitory concentration [7, 23]: 32 µM; Minimum inhibitory concentration [8, 24]: 16 µM; Minimum inhibitory concentration, Average [8, 25]: 16.0 µM; Minimum inhibitory concentration [8, 26]: 16 µM; Minimum inhibitory concentration [8, 27]: 16 µM; Minimum inhibitory concentration [9, 28]: 4 µM; Minimum inhibitory concentration, Average [9, 29]: 4.0 µM; Minimum inhibitory concentration [9, 30]: 4 µM; Minimum inhibitory concentration [9, 31]: 4 µM
IKLRNVLKYLFRIDVIKEDIL [Tc03] | 128 | 128.0 | 128 | 16 | 16.0 | 16 | 16 | – | 512.0 | 512 | 512 | 512 | 512.0 | 512 | 512 | 32 | 64 | 64.0 | 64 | 64 | Minimum inhibitory concentration ([1]; Bacillus cereus, triplicate 3): 128 µM; Minimum inhibitory concentration, Average [5, 15]: 32.0 µM; Minimum inhibitory concentration [5, 16]: 32 µM; Minimum inhibitory concentration [5, 17]: 32 µM; Minimum inhibitory concentration [6, 18]: 64 µM; Minimum inhibitory concentration, Average [6, 19]: 64.0 µM; Minimum inhibitory concentration ([6]; Escherichia coli, triplicate 2): 64 µM; Minimum inhibitory concentration ([6]; Escherichia coli, triplicate 3): 64 µM; Minimum inhibitory concentration [7, 20]: 512 µM; Minimum inhibitory concentration, Average [7, 21]: 512.0 µM; Minimum inhibitory concentration [7, 22]: 512 µM; Minimum inhibitory concentration [7, 23]: 512 µM; Minimum inhibitory concentration [8, 24]: 32 µM; Minimum inhibitory concentration, Average [8, 25]: 32.0 µM; Minimum inhibitory concentration [8, 26]: 32 µM; Minimum inhibitory concentration [8, 27]: 32 µM; Minimum inhibitory concentration [9, 28]: 512 µM; Minimum inhibitory concentration, Average [9, 29]: 512.0 µM; Minimum inhibitory concentration [9, 30]: 512 µM; Minimum inhibitory concentration [9, 31]: 512 µM
IVNHLVKLFDKGLNSIVNLR [Tc05] | – | – | – | 64 | 64.0 | 64 | 64 | 128 | 128.0 | 128 | 128 | 128 | 128.0 | 128 | 128 | – | 512 | 512.0 | 512 | 512 | Minimum inhibitory concentration [1]: 512 µM; Minimum inhibitory concentration, Average [1]: 512.0 µM; Minimum inhibitory concentration [5]: 512 µM; Minimum inhibitory concentration, Average [5]: 512.0 µM; Minimum inhibitory concentration [6]: 512 µM; Minimum inhibitory concentration, Average [6]: 512.0 µM; Minimum inhibitory concentration [7]: 512 µM; Minimum inhibitory concentration, Average [7]: 512.0 µM; Minimum inhibitory concentration [8]: 512 µM; Minimum inhibitory concentration, Average [8]: 512.0 µM; Minimum inhibitory concentration [9]: 512 µM; Minimum inhibitory concentration, Average [9]: 512.0 µM
KVLSKVHTLLKAVLAL [At02] | 2 | 3.3 | 4 | 1 | 1.0 | 1 | 1 | 8 | 8.0 | 8 | 8 | 4 | 4.0 | 4 | 4 | 1 | 1 | 1.0 | 1 | 1 | Minimum inhibitory concentration ([1]; Bacillus cereus, triplicate 3): 4 µM; Minimum inhibitory concentration, Average [5, 15]: 1.0 µM; Minimum inhibitory concentration [5, 16]: 1 µM; Minimum inhibitory concentration [5, 17]: 1 µM; Minimum inhibitory concentration [6, 18]: 2 µM; Minimum inhibitory concentration, Average [6, 19]: 2.0 µM; Minimum inhibitory concentration ([6]; Escherichia coli, triplicate 2): 2 µM; Minimum inhibitory concentration ([6]; Escherichia coli, triplicate 3): 2 µM; Minimum inhibitory concentration [7, 20]: 4 µM; Minimum inhibitory concentration, Average [7, 21]: 5.3 µM; Minimum inhibitory concentration [7, 22]: 4 µM; Minimum inhibitory concentration [7, 23]: 8 µM; Minimum inhibitory concentration [8, 24]: 4 µM; Minimum inhibitory concentration, Average [8, 25]: 4.0 µM; Minimum inhibitory concentration [8, 26]: 4 µM; Minimum inhibitory concentration [8, 27]: 4 µM; Minimum inhibitory concentration [9, 28]: 4 µM; Minimum inhibitory concentration, Average [9, 29]: 4.0 µM; Minimum inhibitory concentration [9, 30]: 4 µM; Minimum inhibitory concentration [9, 31]: 4 µM
